Patent US20240018157A1, “CYCLIC COMPOUNDS AND METHODS OF USING SAME” (Schrödinger, Inc., priority 2019, published 2024)

molecular target: full-length MALT1 protein His-MALT1(1-824) (Homo sapiens (Human), UniProt Q9UDY8); assay: MALT1 protease assay, Assay 2 (1 nM MALT1, Ac-LRSR-AMC substrate); assay type: biochemical; conditions: 1 nM MALT1, 50 μM Ac-LRSR-AMC, 2 h pre-incubation, 8 hr incubation at RT
Method: MALT1 protease activity was assessed in an in vitro assay using a tetrapeptide as substrate and full-length MALT1 protein His-MALT1(1-824) purified from baculovirus-infected insect cells.
The final assay buffer includes 1 nM (Assay 2) or 2 nM (Assay 1) of MALT1 full-length protein, 50 μM Ac-LRSR-AMC substrate, 50 mM Tris pH 7.5, 600 mM Sodium Citrate, 1 mM DTT, 1 mM EDTA, and 0.05% BSA in 384-well plate format using black microtiter square well plates (Optiplate 384-F, Perkin Elmer).
Test compounds were dissolved in 100% DMSO at stock of 10 mM, with final DMSO concentration 0.1%. Test compounds were pre-incubated with MALT1 protein for 2 h at room temperature. Substrate was added after the pre-incubation and fluorescence signal was measured using Envision at excitation 355 nm and emission 460 nm after 8 hr incubation at RT.
The fluorescence units were transformed to percentage of remaining activity by using the high control (HC, median of fluorescence signal from wells containing MALT1 protein, substrate, and DMSO) and low control (LC, median of fluorescence signal from wells with substrate only) with the formula below: […]
IC50 and Hill coefficient were obtained using Graph Pad Prism (Graph Pad software, Inc, USA) with non-linear regression analysis.

Sequence of full-length MALT1 protein His-MALT1(1-824) (Q9UDY8 whole entry): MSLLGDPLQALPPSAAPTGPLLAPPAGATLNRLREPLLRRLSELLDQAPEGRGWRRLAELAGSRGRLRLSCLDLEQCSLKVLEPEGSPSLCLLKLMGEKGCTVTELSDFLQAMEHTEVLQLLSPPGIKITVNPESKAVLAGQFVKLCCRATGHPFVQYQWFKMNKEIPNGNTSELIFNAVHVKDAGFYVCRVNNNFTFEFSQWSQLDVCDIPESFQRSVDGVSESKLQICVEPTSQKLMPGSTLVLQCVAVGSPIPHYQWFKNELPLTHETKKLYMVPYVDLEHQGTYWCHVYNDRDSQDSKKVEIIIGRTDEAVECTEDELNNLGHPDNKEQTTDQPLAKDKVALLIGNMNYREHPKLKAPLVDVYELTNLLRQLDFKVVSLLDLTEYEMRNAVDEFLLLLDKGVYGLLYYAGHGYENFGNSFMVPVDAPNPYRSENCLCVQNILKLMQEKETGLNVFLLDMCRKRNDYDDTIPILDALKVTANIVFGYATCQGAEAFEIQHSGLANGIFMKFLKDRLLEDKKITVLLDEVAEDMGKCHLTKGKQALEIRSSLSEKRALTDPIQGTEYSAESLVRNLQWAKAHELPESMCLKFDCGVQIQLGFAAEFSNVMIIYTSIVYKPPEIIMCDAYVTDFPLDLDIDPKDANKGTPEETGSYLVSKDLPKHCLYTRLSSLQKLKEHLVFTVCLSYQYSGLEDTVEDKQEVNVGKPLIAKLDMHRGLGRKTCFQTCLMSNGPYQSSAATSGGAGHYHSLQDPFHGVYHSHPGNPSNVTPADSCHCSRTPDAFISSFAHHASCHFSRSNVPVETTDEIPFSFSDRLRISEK

SMILES | IC50
C[C@@]1(C(F)(F)F)CN(C(=O)Nc2cc(C(F)F)on2)c2cnc3cc(Cl)nn3c21 [compound 102, (R)-2-chloro-N-(5-(difluoromethyl)isoxazol-3-yl)-8-methyl-8-(trifluoromethyl)-7,8-dihydro-6H-pyrazolo[1,5-a]pyrrolo[2,3-e]pyrimidine-6-carboxamide] | 100 to 1000 nM
CN(C)c1cc(NC(=O)N2C[C@@](C)(C(F)(F)F)c3c2cnc2cc(Cl)nn32)cnn1 [compound 101, (R)-2-chloro-N-(6-(dimethylamino)pyridazin-4-yl)-8-methyl-8-(trifluoromethyl)-7,8-dihydro-6H-pyrazolo[1,5-a]pyrrolo[2,3-e]pyrimidine-6-carboxamide] | 100 to 1000 nM
CN1CC(Oc2cc(NC(=O)N3C[C@@](C)(C(F)(F)F)c4c3cnc3cc(Cl)nn43)cn(C(F)F)c2=O)C1 [compound 110, (R)-2-chloro-N-(1-(difluoromethyl)-5-((1-methylazetidin-3-yl)oxy)-6-oxo-1,6-dihydropyridin-3-yl)-8-methyl-8-(trifluoromethyl)-7,8-dihydro-6H-pyrazolo[1,5-a]pyrrolo[2,3-e]pyrimidine-6-carboxamide] | 100 to 1000 nM
Cc1cc(NC(=O)N2C[C@@](C)(C(F)(F)F)c3c2cnc2cc(Cl)nn32)cc(OC[C@H](C)N)n1 [compound 58, (R)-N-(2-((S)-2-aminopropoxy)-6-methylpyridin-4-yl)-2-chloro-8-methyl-8-(trifluoromethyl)-7,8-dihydro-6H-pyrazolo[1,5-a]pyrrolo[2,3-e]pyrimidine-6-carboxamide] | 10 to 100 nM
C[C@@]1(C(F)(F)F)CN(C(=O)Nc2cc(C(F)F)ncn2)c2cnc3cc(Cl)nn3c21 [compound 106, (R)-2-chloro-N-(6-(difluoromethyl)pyrimidin-4-yl)-8-methyl-8-(trifluoromethyl)-7,8-dihydro-6H-pyrazolo[1,5-a]pyrrolo[2,3-e]pyrimidine-6-carboxamide] | 10 to 100 nM
C[C@@]1(C(F)(F)F)CN(C(=O)Nc2cc(C(F)F)n[nH]2)c2cnc3cc(Cl)nn3c21 [compound 107, (R)-2-chloro-N-(3-(difluoromethyl)-1H-pyrazol-5-yl)-8-methyl-8-(trifluoromethyl)-7,8-dihydro-6H-pyrazolo[1,5-a]pyrrolo[2,3-e]pyrimidine-6-carboxamide] | 10 to 100 nM
C[C@@H](N)COc1cc(NC(=O)N2C[C@@](C)(C(F)(F)F)c3c2cnc2cc(Cl)nn32)cn(C(F)F)c1=O [compound 109, (R)-N-(5-((R)-2-aminopropoxy)-1-(difluoromethyl)-6-oxo-1,6-dihydropyridin-3-yl)-2-chloro-8-methyl-8-(trifluoromethyl)-7,8-dihydro-6H-pyrazolo[1,5-a]pyrrolo[2,3-e]pyrimidine-6-carboxamide] | 100 to 1000 nM
CC1(C)CN=C(c2ncc(NC(=O)N3C[C@@](C)(C(F)(F)F)c4c3cnc3cc(Cl)nn43)cc2Cl)O1 [compound 118] | 10 to 100 nM
C[C@]1(C(F)(F)F)CN(C(=O)Nc2cnc(-n3nccn3)c(C#N)c2)c2cnc3cc(F)nn3c21 [compound 90, (S)-N-(5-cyano-6-(2H-1,2,3-triazol-2-yl)pyridin-3-yl)-2-fluoro-8-methyl-8-(trifluoromethyl)-7,8-dihydro-6H-pyrazolo[1,5-a]pyrrolo[2,3-e]pyrimidine-6-carboxamide] | 10 to 100 nM
C[C@@]1(C(F)(F)F)CN(C(=O)Nc2cc(NC3COC3)nc(C(F)(F)F)c2)c2cnc3cc(Cl)nn3c21 [compound 99, (R)-2-chloro-8-methyl-N-(2-(oxetan-3-ylamino)-6-(trifluoromethyl)pyridin-4-yl)-8-(trifluoromethyl)-7,8-dihydro-6H-pyrazolo[1,5-a]pyrrolo[2,3-e]pyrimidine-6-carboxamide] | 100 to 1000 nM
CNc1nnc(C(F)(F)F)cc1NC(=O)N1C[C@@](C)(C(F)(F)F)c2c1cnc1cc(Cl)nn21 [compound 112, (R)-2-chloro-8-methyl-N-(3-(methylamino)-6-(trifluoromethyl)pyridazin-4-yl)-8-(trifluoromethyl)-7,8-dihydro-6H-pyrazolo[1,5-a]pyrrolo[2,3-e]pyrimidine-6-carboxamide] | 100 to 1000 nM
CC(C)(O)c1cc(NC(=O)N2C[C@@](C)(C(F)(F)F)c3c2cnc2cc(Cl)nn32)cc(C(F)(F)F)n1 [compound 78, (R)-2-chloro-N-(2-(2-hydroxypropan-2-yl)-6-(trifluoromethyl)pyridin-4-yl)-8-methyl-8-(trifluoromethyl)-7,8-dihydro-6H-pyrazolo[1,5-a]pyrrolo[2,3-e]pyrimidine-6-carboxamide] | 100 to 1000 nM

Second part, the compound after the results:

IC50 | SMILES
10 to 100 nM | CN1CC[C@H](Oc2cc(OC(F)F)cc(NC(=O)N3C[C@@](C)(C(F)(F)F)c4c3cnc3cc(Cl)nn43)n2)C1 [compound 198, (R)-2-chloro-N-(4-(difluoromethoxy)-6-(((S)-1-methylpyrrolidin-3-yl)oxy)pyridin-2-yl)-8-methyl-8-(trifluoromethyl)-7,8-dihydro-6H-pyrazolo[1,5-a]pyrrolo[2,3-e]pyrimidine-6-carboxamide]
100 to 1000 nM | CN1CC(Oc2cc(NC(=O)N3C[C@@](C)(C(F)(F)F)c4c3cnc3cc(Cl)nn43)cc(C(F)F)n2)C1 [compound 130, (R)-2-chloro-N-(2-(difluoromethyl)-6-((1-methylazetidin-3-yl)oxy)pyridin-4-yl)-8-methyl-8-(trifluoromethyl)-7,8-dihydro-6H-pyrazolo[1,5-a]pyrrolo[2,3-e]pyrimidine-6-carboxamide]
100 to 1000 nM | Cn1cc(NC(=O)N2C[C@@](C)(C(F)(F)F)c3c2cnc2cc(Cl)nn32)cn1 [compound 164, (R)-2-chloro-8-methyl-N-(1-methyl-1H-pyrazol-4-yl)-8-(trifluoromethyl)-7,8-dihydro-6H-pyrazolo[1,5-a]pyrrolo[2,3-e]pyrimidine-6-carboxamide]
10 to 100 nM | C[C@@]1(C(F)(F)F)CN(C(=O)Nc2cc(C(F)(F)F)n[nH]2)c2cnc3cc(Cl)nn3c21 [compound 131, (R)-2-chloro-8-methyl-8-(trifluoromethyl)-N-(3-(trifluoromethyl)-1H-pyrazol-5-yl)-7,8-dihydro-6H-pyrazolo[1,5-a]pyrrolo[2,3-e]pyrimidine-6-carboxamide]
100 to 1000 nM | C[C@@]1(C(F)(F)F)CN(C(=O)Nc2cc(C(F)F)nnc2C(N)=O)c2cnc3cc(Cl)nn3c21 [compound 148, (R)-N-(3-carbamoyl-6-(difluoromethyl)pyridazin-4-yl)-2-chloro-8-methyl-8-(trifluoromethyl)-7,8-dihydro-6H-pyrazolo[1,5-a]pyrrolo[2,3-e]pyrimidine-6-carboxamide]
100 to 1000 nM | C[C@@]1(C(F)(F)F)CN(C(=O)Nc2cnc(C(=O)N3CCC3)c(C(F)F)c2)c2cnc3cc(Cl)nn3c21 [compound 203, (R)-N-(6-(azetidine-1-carbonyl)-5-(difluoromethyl)pyridin-3-yl)-2-chloro-8-methyl-8-(trifluoromethyl)-7,8-dihydro-6H-pyrazolo[1,5-a]pyrrolo[2,3-e]pyrimidine-6-carboxamide]
100 to 1000 nM | C[C@@]1(C(F)(F)F)CN(C(=O)Nc2cc(C(F)F)nnc2C#N)c2cnc3cc(Cl)nn3c21 [compound 143, (R)-2-chloro-N-(3-cyano-6-(difluoromethyl)pyridazin-4-yl)-8-methyl-8-(trifluoromethyl)-7,8-dihydro-6H-pyrazolo[1,5-a]pyrrolo[2,3-e]pyrimidine-6-carboxamide]
10 to 100 nM | Cc1cn2ccc3c(c2n1)C(C)(C(F)(F)F)CN3C(=O)Nc1cnc(-n2nccn2)c(Cl)c1 (stereo not shown) [compound 193, N-(5-chloro-6(2H-1,2,3-triazol-2-yl)pyridin-3-yl)-2,9-dimethyl-9-(trifluoromethyl)-8,9-dihydro-7H-imidazo[1,2-a]pyrrolo[3,2-c]pyridine-7-carboxamide]
100 to 1000 nM | CNc1cc(NC(=O)N2C[C@@](C)(C(F)(F)F)c3c2cnc2cc(Cl)nn32)cnc1-n1nccn1 [compound 132, (R)-2-chloro-8-methyl-N-(5-(methylamino)-6-(2H-1,2,3-triazol-2-yl)pyridin-3-yl)-8-(trifluoromethyl)-7,8-dihydro-6H-pyrazolo[1,5-a]pyrrolo[2,3-e]pyrimidine-6-carboxamide]
100 to 1000 nM | CC(C)(O)c1cnn(-c2ncc(NC(=O)N3C[C@@](C)(C(F)(F)F)c4c3cnc3cc(Cl)nn43)cc2Cl)n1 [compound 180, (R)-2-chloro-N-(5-chloro-6-(4-(2-hydroxypropan-2-yl)-2H-1,2,3-triazol-2-yl)pyridine-3-yl)-8-methyl-8-(trifluoromethyl)-7,8-dihydro-6H-pyrazolo[1,5-a]pyrrolo[2,3-e]pyrimidine-6-carboxamide]
